This passage reports normalised inhibition (eCFP-eYFP dual reporter) results from the OligoGym collection.

Oligonucleotides are given in HELM: sugar(base)linkage, 5' to 3'; d 2'-deoxyribose, r ribose, m 2'-O-methylribose, p phosphate. ss, as = sense and antisense strand

This data set deals with Mmp7 (rat). The experiment in a line: reporter assay of Huesken 2005. As to conditions: siRNA. (In a reporter assay the amount or activity of a reporter protein is the signal.)
Further: test concentration or dose not given here.

Consider “RNA1{r(G)p.r(C)p.r(G)p.r(G)p.r(A)p.r(G)p.r(A)p.r(U)p.r(G)p.r(C)p.r(U)p.r(C)p.r(A)p.r(C)p.r(U)p.r(U)p.r(U)p.r(G)p.r(A)p.d(T)p.d(T)}|RNA2{r(U)p.r(C)p.r(A)p.r(A)p.r(A)p.r(G)p.r(U)p.r(G)p.r(A)p.r(G)p.r(C)p.r(A)p.r(U)p.r(C)p.r(U)p.r(C)p.r(C)p.r(G)p.r(C)p.d(C)p.d(G)}$$$RNA1{StrandType:ss}|RNA2{StrandType:as}$”, for which the normalised inhibition (eCFP-eYFP dual reporter) was found to be 108%.
Then “RNA1{r(U)p.r(C)p.r(U)p.r(G)p.r(U)p.r(G)p.r(A)p.r(U)p.r(G)p.r(U)p.r(A)p.r(C)p.r(C)p.r(C)p.r(U)p.r(A)p.r(C)p.r(C)p.r(U)p.d(T)p.d(T)}|RNA2{r(A)p.r(G)p.r(G)p.r(U)p.r(A)p.r(G)p.r(G)p.r(G)p.r(U)p.r(A)p.r(C)p.r(A)p.r(U)p.r(C)p.r(A)p.r(C)p.r(A)p.r(G)p.r(A)p.d(A)p.d(C)}$$$RNA1{StrandType:ss}|RNA2{StrandType:as}$”, with 55.2%; and “RNA1{r(U)p.r(C)p.r(A)p.r(U)p.r(A)p.r(A)p.r(U)p.r(U)p.r(G)p.r(G)p.r(C)p.r(U)p.r(U)p.r(C)p.r(G)p.r(C)p.r(A)p.r(A)p.r(G)p.d(T)p.d(T)}|RNA2{r(C)p.r(U)p.r(U)p.r(G)p.r(C)p.r(G)p.r(A)p.r(A)p.r(G)p.r(C)p.r(C)p.r(A)p.r(A)p.r(U)p.r(U)p.r(A)p.r(U)p.r(G)p.r(A)p.d(T)p.d(G)}$$$RNA1{StrandType:ss}|RNA2{StrandType:as}$”, with 75.5%.
Regarding “RNA1{r(A)p.r(C)p.r(A)p.r(G)p.r(G)p.r(C)p.r(G)p.r(C)p.r(A)p.r(G)p.r(A)p.r(A)p.r(U)p.r(U)p.r(A)p.r(U)p.r(C)p.r(U)p.r(U)p.d(T)p.d(T)}|RNA2{r(A)p.r(A)p.r(G)p.r(A)p.r(U)p.r(A)p.r(A)p.r(U)p.r(U)p.r(C)p.r(U)p.r(G)p.r(C)p.r(G)p.r(C)p.r(C)p.r(U)p.r(G)p.r(U)p.d(T)p.d(C)}$$$RNA1{StrandType:ss}|RNA2{StrandType:as}$”, the normalised inhibition (eCFP-eYFP dual reporter) is 75.6%.
Take “RNA1{r(A)p.r(C)p.r(A)p.r(G)p.r(U)p.r(C)p.r(C)p.r(U)p.r(A)p.r(A)p.r(G)p.r(U)p.r(G)p.r(G)p.r(C)p.r(A)p.r(U)p.r(U)p.r(C)p.d(T)p.d(T)}|RNA2{r(G)p.r(A)p.r(A)p.r(U)p.r(G)p.r(C)p.r(C)p.r(A)p.r(C)p.r(U)p.r(U)p.r(A)p.r(G)p.r(G)p.r(A)p.r(C)p.r(U)p.r(G)p.r(U)p.d(T)p.d(T)}$$$RNA1{StrandType:ss}|RNA2{StrandType:as}$”: the normalised inhibition (eCFP-eYFP dual reporter) worked out at 65.7%.
Then “RNA1{r(U)p.r(A)p.r(G)p.r(G)p.r(A)p.r(A)p.r(A)p.r(U)p.r(U)p.r(U)p.r(U)p.r(A)p.r(C)p.r(C)p.r(U)p.r(U)p.r(C)p.r(A)p.r(C)p.d(T)p.d(T)}|RNA2{r(G)p.r(U)p.r(G)p.r(A)p.r(A)p.r(G)p.r(G)p.r(U)p.r(A)p.r(A)p.r(A)p.r(A)p.r(U)p.r(U)p.r(U)p.r(C)p.r(C)p.r(U)p.r(A)p.d(A)p.d(G)}$$$RNA1{StrandType:ss}|RNA2{StrandType:as}$”, with 86.2%; and “RNA1{r(G)p.r(C)p.r(A)p.r(G)p.r(A)p.r(A)p.r(U)p.r(U)p.r(A)p.r(U)p.r(C)p.r(U)p.r(U)p.r(A)p.r(G)p.r(G)p.r(A)p.r(A)p.r(A)p.d(T)p.d(T)}|RNA2{r(U)p.r(U)p.r(U)p.r(C)p.r(C)p.r(U)p.r(A)p.r(A)p.r(G)p.r(A)p.r(U)p.r(A)p.r(A)p.r(U)p.r(U)p.r(C)p.r(U)p.r(G)p.r(C)p.d(G)p.d(C)}$$$RNA1{StrandType:ss}|RNA2{StrandType:as}$”, with 132%.
Turning to “RNA1{r(A)p.r(G)p.r(G)p.r(C)p.r(C)p.r(U)p.r(C)p.r(G)p.r(G)p.r(C)p.r(G)p.r(G)p.r(A)p.r(G)p.r(A)p.r(U)p.r(G)p.r(C)p.r(U)p.d(T)p.d(T)}|RNA2{r(A)p.r(G)p.r(C)p.r(A)p.r(U)p.r(C)p.r(U)p.r(C)p.r(C)p.r(G)p.r(C)p.r(C)p.r(G)p.r(A)p.r(G)p.r(G)p.r(C)p.r(C)p.r(U)p.d(G)p.d(G)}$$$RNA1{StrandType:ss}|RNA2{StrandType:as}$”, the normalised inhibition (eCFP-eYFP dual reporter) is 68.5%.
For “RNA1{r(G)p.r(G)p.r(U)p.r(G)p.r(A)p.r(G)p.r(G)p.r(A)p.r(C)p.r(U)p.r(C)p.r(A)p.r(G)p.r(G)p.r(C)p.r(G)p.r(U)p.r(G)p.r(A)p.d(T)p.d(T)}|RNA2{r(U)p.r(C)p.r(A)p.r(C)p.r(G)p.r(C)p.r(C)p.r(U)p.r(G)p.r(A)p.r(G)p.r(U)p.r(C)p.r(C)p.r(U)p.r(C)p.r(A)p.r(C)p.r(C)p.d(A)p.d(T)}$$$RNA1{StrandType:ss}|RNA2{StrandType:as}$”, the normalised inhibition (eCFP-eYFP dual reporter) is 94.6%.
As to “RNA1{r(G)p.r(C)p.r(A)p.r(A)p.r(G)p.r(G)p.r(G)p.r(G)p.r(A)p.r(G)p.r(A)p.r(U)p.r(C)p.r(A)p.r(C)p.r(G)p.r(G)p.r(A)p.r(G)p.d(T)p.d(T)}|RNA2{r(C)p.r(U)p.r(C)p.r(C)p.r(G)p.r(U)p.r(G)p.r(A)p.r(U)p.r(C)p.r(U)p.r(C)p.r(C)p.r(C)p.r(C)p.r(U)p.r(U)p.r(G)p.r(C)p.d(G)p.d(A)}$$$RNA1{StrandType:ss}|RNA2{StrandType:as}$”, the normalised inhibition (eCFP-eYFP dual reporter) was 90.5%.
Take “RNA1{r(A)p.r(A)p.r(G)p.r(U)p.r(U)p.r(C)p.r(U)p.r(U)p.r(C)p.r(G)p.r(G)p.r(U)p.r(U)p.r(U)p.r(G)p.r(C)p.r(C)p.r(G)p.r(G)p.d(T)p.d(T)}|RNA2{r(C)p.r(C)p.r(G)p.r(G)p.r(C)p.r(A)p.r(A)p.r(A)p.r(C)p.r(C)p.r(G)p.r(A)p.r(A)p.r(G)p.r(A)p.r(A)p.r(C)p.r(U)p.r(U)p.d(C)p.d(T)}$$$RNA1{StrandType:ss}|RNA2{StrandType:as}$”: the normalised inhibition (eCFP-eYFP dual reporter) is 1.8%.
With “RNA1{r(C)p.r(C)p.r(A)p.r(G)p.r(G)p.r(A)p.r(A)p.r(G)p.r(C)p.r(C)p.r(G)p.r(G)p.r(A)p.r(G)p.r(A)p.r(A)p.r(G)p.r(U)p.r(G)p.d(T)p.d(T)}|RNA2{r(C)p.r(A)p.r(C)p.r(U)p.r(U)p.r(C)p.r(U)p.r(C)p.r(C)p.r(G)p.r(G)p.r(C)p.r(U)p.r(U)p.r(C)p.r(C)p.r(U)p.r(G)p.r(G)p.d(G)p.d(A)}$$$RNA1{StrandType:ss}|RNA2{StrandType:as}$”, the normalised inhibition (eCFP-eYFP dual reporter) is 72.2%.
As to “RNA1{r(U)p.r(U)p.r(C)p.r(A)p.r(G)p.r(A)p.r(A)p.r(G)p.r(A)p.r(C)p.r(U)p.r(U)p.r(C)p.r(A)p.r(G)p.r(U)p.r(C)p.r(U)p.r(U)p.d(T)p.d(T)}|RNA2{r(A)p.r(A)p.r(G)p.r(A)p.r(C)p.r(U)p.r(G)p.r(A)p.r(A)p.r(G)p.r(U)p.r(C)p.r(U)p.r(U)p.r(C)p.r(U)p.r(G)p.r(A)p.r(A)p.d(T)p.d(G)}$$$RNA1{StrandType:ss}|RNA2{StrandType:as}$”, the normalised inhibition (eCFP-eYFP dual reporter) is 92.5%.
As for “RNA1{r(G)p.r(G)p.r(A)p.r(G)p.r(U)p.r(A)p.r(U)p.r(G)p.r(C)p.r(A)p.r(A)p.r(A)p.r(U)p.r(C)p.r(C)p.r(C)p.r(A)p.r(C)p.r(U)p.d(T)p.d(T)}|RNA2{r(A)p.r(G)p.r(U)p.r(G)p.r(G)p.r(G)p.r(A)p.r(U)p.r(U)p.r(U)p.r(G)p.r(C)p.r(A)p.r(U)p.r(A)p.r(C)p.r(U)p.r(C)p.r(C)p.d(A)p.d(C)}$$$RNA1{StrandType:ss}|RNA2{StrandType:as}$”, the normalised inhibition (eCFP-eYFP dual reporter) worked out at 96.7%.
Consider “RNA1{r(U)p.r(A)p.r(A)p.r(U)p.r(G)p.r(C)p.r(C)p.r(A)p.r(A)p.r(A)p.r(C)p.r(A)p.r(G)p.r(U)p.r(C)p.r(C)p.r(U)p.r(A)p.r(A)p.d(T)p.d(T)}|RNA2{r(U)p.r(U)p.r(A)p.r(G)p.r(G)p.r(A)p.r(C)p.r(U)p.r(G)p.r(U)p.r(U)p.r(U)p.r(G)p.r(G)p.r(C)p.r(A)p.r(U)p.r(U)p.r(A)p.d(G)p.d(T)}$$$RNA1{StrandType:ss}|RNA2{StrandType:as}$”, for which the normalised inhibition (eCFP-eYFP dual reporter) was 105%.
On to “RNA1{r(G)p.r(C)p.r(A)p.r(G)p.r(A)p.r(A)p.r(U)p.r(U)p.r(C)p.r(U)p.r(C)p.r(A)p.r(C)p.r(U)p.r(A)p.r(A)p.r(U)p.r(G)p.r(C)p.d(T)p.d(T)}|RNA2{r(G)p.r(C)p.r(A)p.r(U)p.r(U)p.r(A)p.r(G)p.r(U)p.r(G)p.r(A)p.r(G)p.r(A)p.r(A)p.r(U)p.r(U)p.r(C)p.r(U)p.r(G)p.r(C)p.d(A)p.d(A)}$$$RNA1{StrandType:ss}|RNA2{StrandType:as}$”, for which the normalised inhibition (eCFP-eYFP dual reporter) was 94.3%.
For the substance “RNA1{r(G)p.r(C)p.r(C)p.r(A)p.r(C)p.r(U)p.r(C)p.r(U)p.r(C)p.r(U)p.r(G)p.r(G)p.r(G)p.r(U)p.r(C)p.r(U)p.r(G)p.r(G)p.r(G)p.d(T)p.d(T)}|RNA2{r(C)p.r(C)p.r(C)p.r(A)p.r(G)p.r(A)p.r(C)p.r(C)p.r(C)p.r(A)p.r(G)p.r(A)p.r(G)p.r(A)p.r(G)p.r(U)p.r(G)p.r(G)p.r(C)p.d(C)p.d(A)}$$$RNA1{StrandType:ss}|RNA2{StrandType:as}$”, the normalised inhibition (eCFP-eYFP dual reporter) is 63.3%.
Consider “RNA1{r(A)p.r(A)p.r(G)p.r(U)p.r(G)p.r(A)p.r(C)p.r(C)p.r(G)p.r(C)p.r(A)p.r(C)p.r(U)p.r(U)p.r(C)p.r(A)p.r(G)p.r(U)p.r(G)p.d(T)p.d(T)}|RNA2{r(C)p.r(A)p.r(C)p.r(U)p.r(G)p.r(A)p.r(A)p.r(G)p.r(U)p.r(G)p.r(C)p.r(G)p.r(G)p.r(U)p.r(C)p.r(A)p.r(C)p.r(U)p.r(U)p.d(C)p.d(T)}$$$RNA1{StrandType:ss}|RNA2{StrandType:as}$”, for which the normalised inhibition (eCFP-eYFP dual reporter) is 79.7%.
Regarding “RNA1{r(U)p.r(U)p.r(C)p.r(C)p.r(U)p.r(G)p.r(U)p.r(U)p.r(U)p.r(G)p.r(U)p.r(U)p.r(G)p.r(C)p.r(C)p.r(A)p.r(C)p.r(U)p.r(C)p.d(T)p.d(T)}|RNA2{r(G)p.r(A)p.r(G)p.r(U)p.r(G)p.r(G)p.r(C)p.r(A)p.r(A)p.r(C)p.r(A)p.r(A)p.r(A)p.r(C)p.r(A)p.r(G)p.r(G)p.r(A)p.r(A)p.d(G)p.d(T)}$$$RNA1{StrandType:ss}|RNA2{StrandType:as}$”, the normalised inhibition (eCFP-eYFP dual reporter) worked out at 37.6%.
Then “RNA1{r(U)p.r(A)p.r(C)p.r(U)p.r(G)p.r(G)p.r(A)p.r(C)p.r(G)p.r(G)p.r(A)p.r(U)p.r(G)p.r(G)p.r(U)p.r(G)p.r(A)p.r(G)p.r(G)p.d(T)p.d(T)}|RNA2{r(C)p.r(C)p.r(U)p.r(C)p.r(A)p.r(C)p.r(C)p.r(A)p.r(U)p.r(C)p.r(C)p.r(G)p.r(U)p.r(C)p.r(C)p.r(A)p.r(G)p.r(U)p.r(A)p.d(C)p.d(T)}$$$RNA1{StrandType:ss}|RNA2{StrandType:as}$”, with 32.6%.
